We go through 15 molecules from ChEMBL document CHEMBL1150635, “Cytotoxic pyrrolo- and furanoterpenoids from the sponge sarcotragus species” (2002).

Holding throughout (format): functional
Conditions in all cases: read-out: ED50 (the source's name)

One assay concerns A549. Description: Cytotoxicity against human A549 cells.
The next assay concerns SK-MEL-2. Put plainly: Cytotoxicity against human SK-MEL-2 cells.
For the next assay, the system named is XF498. Put plainly: Cytotoxicity against human XF498 cells.
The subject of another assay is HCT-15. Put plainly: Cytotoxicity against human HCT15 cells.
The next assay concerns SK-OV-3. Put plainly: Cytotoxicity against human SKOV3 cells.

Converted amounts (≈) assume the structure as drawn.

Take `CC1=C(O)[C@H](C/C(C)=C\CC[C@H](C)/C=C/C=C(\C)CCCC2=CCN(CCC(C)C)C2=O)OC1=O` [SARCOTRINE A]: the EC50 was 15.1 µg/mL (≈ 31.2 µM) in the assay on A549; 4.1 µg/mL (≈ 8.48 µM) in the assay with SK-MEL-2; 5.5 µg/mL (≈ 11.4 µM) in the assay on XF498; 5 µg/mL (≈ 10.3 µM) in the assay with HCT-15; 5.3 µg/mL (≈ 11 µM) in the assay with SK-OV-3.

Consider `CC1=C(O)[C@H](C/C(C)=C\CC[C@H](C)/C=C/C=C(\C)CCCC2=CC(=O)N(CCC(C)C)C2)OC1=O` [SARCOTRINE D], for which the EC50 is greater than 30 µg/mL with A549; 13.2 µg/mL (≈ 27.3 µM) with SK-MEL-2; greater than 30 µg/mL in the assay on XF498; 21.6 µg/mL (≈ 44.7 µM) in the assay with HCT-15; 25.9 µg/mL (≈ 53.5 µM) in the assay with SK-OV-3.

Regarding `CC1=C(O)[C@@H](C/C(C)=C\CC[C@H](C)/C=C/C=C(\C)CCCC2=CCN(CCc3ccccc3)C2=O)OC1=O` [EPI-SARCOTRINE B], the EC50 with A549 was 16.8 µg/mL (≈ 32.5 µM); in the assay with SK-MEL-2 it was 4.8 µg/mL (≈ 9.27 µM); in the assay with XF498, 10.5 µg/mL (≈ 20.3 µM); in the assay with HCT-15, 5.4 µg/mL (≈ 10.4 µM); with SK-OV-3, 13.1 µg/mL (≈ 25.3 µM).

Consider `COc1cccc2c1C(=O)c1c(O)c3c(c(O)c1C2=O)C[C@@](O)(C(=O)CO)C[C@@H]3O[C@H]1C[C@H](N)[C@H](O)[C@H](C)O1` [DOXORUBICIN], for which the EC50 amounted to 0.02 µg/mL (≈ 0.0368 µM) in the assay with A549; 0.02 µg/mL (≈ 0.0368 µM) in the assay on SK-MEL-2; 0.13 µg/mL (≈ 0.239 µM) in the assay on XF498; 0.06 µg/mL (≈ 0.11 µM) with HCT-15; 0.16 µg/mL (≈ 0.294 µM) in the assay with SK-OV-3.

As for `CCC(C)CN1CC=C(CCC/C(C)=C/C=C/[C@@H](C)CC/C=C(/C)C[C@@H]2OC(=O)C(C)=C2O)C1=O` (stereo not given in full) [SARCOTRINE C], the EC50 stood at 19 µg/mL (≈ 39.3 µM) in the assay with A549; 3.8 µg/mL (≈ 7.86 µM) in the assay with SK-MEL-2; 5.4 µg/mL (≈ 11.2 µM) in the assay on XF498; 5.3 µg/mL (≈ 11 µM) in the assay with HCT-15; 6.9 µg/mL (≈ 14.3 µM) in the assay on SK-OV-3.

For the molecule `CC1=C(O)[C@H](C/C(C)=C\CC[C@H](C)/C=C/C=C(\C)CCCC2=CCN(CCc3ccccc3)C2=O)OC1=O` [SARCOTRINE B], the EC50 with A549 worked out at 6.3 µg/mL (≈ 12.2 µM); in the assay on SK-MEL-2 it was 4.3 µg/mL (≈ 8.31 µM); with XF498 it was 5.2 µg/mL (≈ 10 µM); in the assay with HCT-15, 4.9 µg/mL (≈ 9.46 µM); in the assay on SK-OV-3 it was 6.7 µg/mL (≈ 12.9 µM).

On to `CC1=C(O)[C@@H](C/C(C)=C\CC[C@H](C)/C=C/C=C(\C)CCCc2ccoc2)OC1=O` [EPI-SARCOTIN A], for which the EC50 in the assay on A549 came out at 12.3 µg/mL (≈ 30.9 µM); in the assay on SK-MEL-2 it was 5.6 µg/mL (≈ 14.1 µM); with XF498 it was 9.8 µg/mL (≈ 24.6 µM); in the assay with HCT-15, 6.5 µg/mL (≈ 16.3 µM); with SK-OV-3, 9.6 µg/mL (≈ 24.1 µM).

As for `CO[C@]1(Cc2ccoc2)C=C(CCC/C(C)=C\CC[C@@H](C)/C=C2\OC(=O)C(C)=C2O)C(=O)O1` [SARCOTIN H], the EC50 with A549 came out at 6.7 µg/mL (≈ 14.7 µM); in the assay on SK-MEL-2 it was 5.9 µg/mL (≈ 12.9 µM); with XF498 it was 6.3 µg/mL (≈ 13.8 µM); in the assay on HCT-15 it was 6.1 µg/mL (≈ 13.4 µM); in the assay with SK-OV-3, 6.8 µg/mL (≈ 14.9 µM).

In the case of `COC(/C=C/[C@@H](C)CC/C=C(/C)C[C@@H]1OC(=O)C(C)=C1O)C(C)(O)CCCc1ccoc1` (stereo not given in full) [SARCOTIN M], the EC50 in the assay with A549 came out at 9 µg/mL (≈ 20.2 µM); with SK-MEL-2 it was 9.9 µg/mL (≈ 22.2 µM); in the assay on XF498, 11.3 µg/mL (≈ 25.3 µM); in the assay on HCT-15, 10.1 µg/mL (≈ 22.6 µM); with SK-OV-3 it was 8.4 µg/mL (≈ 18.8 µM).

On to `CCC(C)CN1CC=C(CCC/C(C)=C/C=C/[C@@H](C)CC/C=C(/C)C[C@H]2OC(=O)C(C)=C2O)C1=O` (stereo not given in full), for which the EC50 in the assay on A549 is 27.1 µg/mL (≈ 56 µM); with SK-MEL-2, 15.9 µg/mL (≈ 32.9 µM); in the assay with XF498, 25.2 µg/mL (≈ 52.1 µM); in the assay on HCT-15, 22.3 µg/mL (≈ 46.1 µM); with SK-OV-3 it was 26.8 µg/mL (≈ 55.4 µM).

Take `COC(=O)C(O)C/C(C)=C\CC[C@H](C)/C=C/C=C(\C)CCCc1ccoc1` (stereo not given in full) [SARCOTIN J]: the EC50 amounted to 18.1 µg/mL (≈ 48.3 µM) in the assay on A549; 7.8 µg/mL (≈ 20.8 µM) in the assay with SK-MEL-2; 24.3 µg/mL (≈ 64.9 µM) in the assay with XF498; 8.7 µg/mL (≈ 23.2 µM) in the assay on HCT-15; 10 µg/mL (≈ 26.7 µM) with SK-OV-3.

Take `COC1C=C(CCC/C(C)=C/C=C/[C@@H](C)CC/C=C(/C)C[C@@H]2OC(=O)C(C)=C2O)C(=O)O1` (stereo not given in full) [SARCOTIN F]: the EC50 in the assay on A549 turned out to be 24.1 µg/mL (≈ 54.2 µM); in the assay on SK-MEL-2, 7.6 µg/mL (≈ 17.1 µM); in the assay on XF498 it was 20.1 µg/mL (≈ 45.2 µM); in the assay on HCT-15 it was 10.5 µg/mL (≈ 23.6 µM); with SK-OV-3 it was 15.2 µg/mL (≈ 34.2 µM).

For the molecule `CO[C@]1(Cc2ccoc2)C=C(CC/C=C(\C)CCC[C@@H](C)/C=C2\OC(=O)C(C)=C2O)C(=O)O1` [SARCOTIN G], the EC50 with A549 was determined as 9.1 µg/mL (≈ 19.9 µM); in the assay with SK-MEL-2, 5.1 µg/mL (≈ 11.2 µM); in the assay with XF498, 7.6 µg/mL (≈ 16.6 µM); in the assay on HCT-15 it was 7.3 µg/mL (≈ 16 µM); in the assay on SK-OV-3, 10 µg/mL (≈ 21.9 µM).

On to `C/C(=C/CC[C@@H](C)/C=C/C=C(\C)CCCc1ccoc1)CC(O)C(=O)[O-].[Na+]` (stereo not given in full) [SARCOTIN I], for which the EC50 in the assay on A549 came out at 24.8 µg/mL; with SK-MEL-2, 25.7 µg/mL; in the assay on XF498, 25.9 µg/mL; in the assay with HCT-15, 23.7 µg/mL; in the assay on SK-OV-3, 23.3 µg/mL.

As for `CC1=C(O)[C@@H](C/C(C)=C\CC[C@H](C)/C=C/C=C(\C)CCCC2=CCN(CCC(C)C)C2=O)OC1=O` [EPI-SARCOTRINE A], the EC50 with A549 is 4.3 µg/mL (≈ 8.89 µM); in the assay on SK-MEL-2, 3.4 µg/mL (≈ 7.03 µM); with XF498, 3.9 µg/mL (≈ 8.06 µM); with HCT-15, 3.8 µg/mL (≈ 7.86 µM); with SK-OV-3 it was 4 µg/mL (≈ 8.27 µM).
